Laboratory results taken from US20140315754A1, “METHODS AND COMPOSITIONS FOR ASSESSING AND TREATING CANCER” (The Board of Regents of the University of Texas System, priority 2013, published 2014).

Key:
[1] = test system: DCLK1 positive cancer cells (CSCs); assay: In vitro relapse assay (spheroid re-growth from cancer stem cells); type: cell-based
Text: In certain embodiments an expression vector can be used to provide an inhibitory RNA to a cell in vitro or in vivo. […] Thus accumulating evidence from literature and from our laboratory strongly supports a critical role of DCLK1 in cancer stem cell biology.

COL3A1 promoter = assay: Promoter activity of COL3A1 constructs in HCT116 cells; type: cell-based, human; details: C-Luciferase reporter, FIG. 14
Text: FIG. 14 HTS Bioassay: (A) RT-PCR analysis of COL3A1 in ShC and ShD clones (5′upstream nucleotide sequence of COL3A1 gene is provided in SEQ ID NO:10). (B) The map of the promoter constructs fused to secretable Cypridina Luciferase (C-Luciferase). (C) The flow diagram of the method used to measure the promoter activity of COL3A1 constructs in HCT116 cells. (D) The promoter activity of COL3A1 constructs in HCT116 cells.
The inventors developed bioassays for […] (HTS), using promoter-reporter constructs of genes identified as being down stream of DCLK1-S, but not DCLK1-L (FIG. 15). As an example of the bioassays developed, the inventors generated promoter-reporter constructs of COL3A1 gene in pCLuc-BASIC-2 vector, based on published sequence of the Col3A1 gene (FIG. 14A-14C) and transiently transfected ShC/ShD clones of HCT-116 cells, as per protocol shown in FIG. 14D. […] Data obtained from the HTS assays with the specific bioassays will help identify specific molecules from available chemical libraries, which will then allow the development of safe and effective drugs for inhibiting tumorigenic/metastatic potential of cancer stem cells, while sparing the functions of normal stem cells in intestinal crypts, as a non-toxic treatment strategy for colorectal/pancreatic cancers, and other cancers as well, which are found to be dependent on the expression of DCLK1-S.

[2] = test system: 5′ promoter of DCLK1 gene (L-DCLK1 expression); assay: RT-PCR expression of L/S DCLK1 in HCT-116 cells before or after 5-Aza-Cytidine; type: cell-based, human; details: FIG. 12B
Text: FIG. 12 (A) Methylation of CpG sites in 5′-promoter of DCLK1-gene in cell lines/human samples; NC=normal colon; CRC=colorectal cancer. (B) Expression of L/S DCLK1 in HCT-116 cells before (−) or after (+) treatment with 5-Aza-Cytidine by RT-PCR.
Recent reports have confirmed DNA methylation of 5′ promoter of DCLK1 gene in CRCs (Vedeld et al. Epigenetics 2014, 9(3).30). Thus, DNA methylation of 5′ promoter leads to epigenetic silencing and loss of L expression in cancer cells/tumors.

Row | Compound | relapse/re-growth of spheroids [1] | promoter activity of COL3A1 constructs (COL3A1 promoter) | expression of L-DCLK1 [2]
1 | shRNA: DCLK1 targeting shRNA; shrna sequence ATCGTTCTGTTATTGTAGC in pGZIP Lentiviral vector (ShD clones) (pGZIP lentiviral vector) | eliminated relapse/re-growth of spheroids | loss of promoter activity | 
2 | COc1cc(/C=C/C(=O)CC(=O)/C=C/c2ccc(O)c(OC)c2)ccc1O [curcumin] | underwent autophagic survival and re-grew (relapse) as spheroids |  | 
3 | Nc1ncn([C@@H]2O[C@H](CO)[C@@H](O)[C@H]2O)c(=O)n1 [5 aza cytidine] |  |  | re-expression of L-DCLK1
